Measurements reported in patent US8765747B2, “Fused 2-aminothiazole compounds” (Dana-Farber Cancer Institute, Inc., priority 2009, dated 2014).

What was measured:
Type in all cases: cell-based, murine
32D-BCR-Abl = assay: Apoptosis assay; set-up: unit not given here; conditions: approximately 3 days of treatment
Description: (§1) Ba/F3.p210 cells were obtained by transfecting the IL-3-dependent marine hematopoietic Ba/F3 cell line with a pGD vector containing p210BCR-ABL (B2A2) cDNA (Daley and Baltimore, 1988; Sattler et al., 1996; Okuda et al., 1996). Murine hematopoietic 32D cells were transduced with retrovirus to express p210 Bcr-ABL (32D.p210 cells) (Matulonis et al., 1993); the 32D-T315I cell line was transfected by electroporation with the imatinib resistant BCR-ABL construct (pCI-neo Mammalian Expression Vector; Promega (#E1841) harboring the point mutation T315I (Weisberg et al., 2005). Ba/F3 cells were stably transfected by electroporation with imatinib-resistant BCR-ABL constructs (pCI-neo Mammalian Expression Vector; Promega (#E1841) harboring the point mutations T315I, F317L, F486S, and M351T; transfectants were selected for neomycin resistance and IL-3-independent growth (Weisberg et al., 2005). Ba/F3 cells were stably transfected by electroporation with BCR-ABL point mutants identified in a random mutagenesis screen for BCR-ABL point mutants conferring resistance to nilotinib: Q252H, E292K, Y253C, Y253H, E255K, and V289L (Ray et al., 2007). Ba/F3 cells were made to express Tel-PDGFRβ as described by Golub et al., 1994, and Carroll et al., 1996. Constructs of D842V-PDGFRα and V561D-PDGFRα cDNA cloned into pcDNA3.1 were stably transfected into Ba/F3 cells by electroporation, and cells were selected for neomycin resistance and IL3-independent growth as described by Weisberg et al., 2006.
(§2) All cell lines were cultured with 5% CO2 at 37° C. in RPMI (Mediatech, Inc., Herndon, Va.) with 10% fetal calf serum (FCS) and supplemented with 1% L-glutamine. Parental Ba/F3 cells were similarly cultured with 15% WEHI-conditioned medium as a source of IL-3. Transfected cell lines were cultured in media supplemented with 1 mg/ml G418.
(§3) Cell cycle analysis was performed using approximately 500,000 cells, which were centrifuged at 1500 rpm for 5 min, washed in PBS, and the pellet re-suspended in 500 μl of propidium iodide solution (50 μg/ml propidium iodide, 0.1% NP-40, 0.1% sodium citrate). The mixture was stored in the dark at 4° C. for a minimum of 15 min, and then analyzed by flow cytometry. Apoptosis of drug-treated cells was measured using the Annexin-V-Fluos Staining Kit (Boehringer Mannheim, Indianapolis).
(§4) Cells cultured in the presence or absence of drug were washed 1× with phosphate-buffered saline (PBS) and centrifuged for 5 min at 1500 rpm. Washed cell pellets were re-suspended in 100 μl of 20% Annexin-V-fluorescein labeling reagent and 20% propidium iodide (PI) in HEPES buffer. Cells were incubated for 15 min at room temperature, followed by dilution with 0.8 ml of HEPES buffer. Samples were then analyzed by flow cytometry. As controls, cells were incubated for 15 min with PI alone, Annexin-V-fluorescein labeling reagent alone, or HEPES buffer, and then diluted with HEPES buffer and analyzed by flow cytometry.

32D-BCR-Abl-T3151 = assay: Apoptosis assay; set-up: unit not given here; conditions: approximately 3 days of treatment
Description: as §1, §2, §3, §4

Ba/F3-kit-T6701 [1] = assay: Apoptosis assay; set-up: unit not given here; conditions: approximately 3 days of treatment
Description: as §2, §3, §4

Ba/F3-PDGFRα-T674M = assay: Apoptosis assay; set-up: unit not given here; conditions: approximately 3 days of treatment
Description: as §2, §3, §4

Ba/F3-PDGFRα-T674I = assay: Apoptosis assay; set-up: unit not given here; conditions: approximately 3 days of treatment
Description: as §2, §3, §4

Ba/F3-Y253C = assay: Relative IC50 in BCR-Abl-expressing cell line; conditions: Mus musculus, 2.5-3 days, read-out: Relative IC50 range
Description: (§5) All compounds were initially dissolved in DMSO to make 10 mM stock solutions, and then were serially diluted to obtain final concentrations for in vitro experiments.
as §1, with “Ba/F3 cells were made to express Tel-PDGFRβ as described by Golub et al., 1994, and Carroll et al., 1996. Constructs of D842V-PDGFRα and V561D-PDGFRα cDNA cloned into pcDNA3.1 were stably transfected into Ba/F3 cells by electroporation, and cells were selected for neomycin resistance and IL3-independent growth as described by Weisberg et al., 2006.” left out

Ba/F3-insAY = assay: Relative IC50 in kit-expressing cell line; conditions: Mus musculus, 2.5-3 days, read-out: Relative IC50 range
Description: as §5, §2

Ba/F3-delWK + Y823D = assay: Relative IC50 in kit-expressing cell line; conditions: Mus musculus, 2.5-3 days, read-out: Relative IC50 range
Description: as §5, §2

Ba/F3-delWK + T6701 = assay: Relative IC50 in kit-expressing cell line; conditions: Mus musculus, 2.5-3 days, read-out: Relative IC50 range
Description: as §5, §2

Ba/F3-delWK + V654A = assay: Relative IC50 in kit-expressing cell line; conditions: Mus musculus, 2.5-3 days, read-out: Relative IC50 range
Description: as §5, §2

Ba/F3-insAY + V654A = assay: Relative IC50 in kit-expressing cell line; conditions: Mus musculus, 2.5-3 days, read-out: Relative IC50 range
Description: as §5, §2

Ba/F3-V6559D = assay: Relative IC50 in kit-expressing cell line; conditions: Mus musculus, 2.5-3 days, read-out: Relative IC50 range
Description: as §5, §2

Ba/F3-insAY + T6701 = assay: Relative IC50 in kit-expressing cell line; conditions: Mus musculus, 2.5-3 days, read-out: Relative IC50 range
Description: as §5, §2

Ba/F3-delWK = assay: Relative IC50 in kit-expressing cell line; conditions: Mus musculus, 2.5-3 days, read-out: Relative IC50 range
Description: as §5, §2

Ba/F3-T6701 = assay: Relative IC50 in kit-expressing cell line; conditions: Mus musculus, 2.5-3 days, read-out: Relative IC50 range
Description: as §5, §2

Ba/F3-kit-T6701 [2] = assay: Cell cycle analysis; conditions: 24 hours of treatment
Description: as §2, §3

- IC50 (Ba/F3-Y253C): < 100 nM
- IC50 (Ba/F3-insAY): > 1000 nM
- IC50 (Ba/F3-delWK + Y823D): 500 to 1000 nM
- IC50 (Ba/F3-delWK + T6701): 25 to 50 nM
- IC50 (Ba/F3-delWK + V654A): 25 to 50 nM
- IC50 (Ba/F3-insAY + V654A): > 1000 nM
- IC50 (Ba/F3-V6559D): 250 to 500 nM
- IC50 (Ba/F3-insAY + T6701): ≥ 1000 nM
- IC50 (Ba/F3-delWK): 12.5 to 25 nM
- IC50 (Ba/F3-T6701): 250 nM
Compound: CCN1CCN(Cc2ccc(NC(=O)c3cccc(-c4ccc5nc(NC(=O)C6CC6)sc5n4)c3)cc2C(F)(F)F)CC1 [Compound 2]
- Apoptotic (32D-BCR-Abl; 0.01 μM): 5.8
- Necrotic (32D-BCR-Abl; 0.01 μM): 0.2
- Viable (32D-BCR-Abl; 0.01 μM): 94
- Apoptotic (32D-BCR-Abl; 0.1 μM): 52.3
- Necrotic (32D-BCR-Abl; 0.1 μM): 0.6
- Viable (32D-BCR-Abl; 0.1 μM): 47.1
- Apoptotic (32D-BCR-Abl; 1.0 μM): 95.3
- Necrotic (32D-BCR-Abl; 1.0 μM): 0.1
- Viable (32D-BCR-Abl; 1.0 μM): 4.6
- Apoptotic (32D-BCR-Abl-T3151; 0.01 μM): 9.0
- Necrotic (32D-BCR-Abl-T3151; 0.01 μM): 0.1
- Viable (32D-BCR-Abl-T3151; 0.01 μM): 90.88
- Apoptotic (32D-BCR-Abl-T3151; 0.1 μM): 9.8
- Necrotic (32D-BCR-Abl-T3151; 0.1 μM): 0.3
- Viable (32D-BCR-Abl-T3151; 0.1 μM): 89.9
- Apoptotic (32D-BCR-Abl-T3151; 1.0 μM): 72.7
- Necrotic (32D-BCR-Abl-T3151; 1.0 μM): 0
- Viable (32D-BCR-Abl-T3151; 1.0 μM): 27.2
- Apoptotic (Ba/F3-kit-T6701 [1]; 0.01 μM): 2.3
- Necrotic (Ba/F3-kit-T6701 [1]; 0.01 μM): 0
- Viable (Ba/F3-kit-T6701 [1]; 0.01 μM): 97.7
- Apoptotic (Ba/F3-kit-T6701 [1]; 0.1 μM): 3.1
- Necrotic (Ba/F3-kit-T6701 [1]; 0.1 μM): 0
- Viable (Ba/F3-kit-T6701 [1]; 0.1 μM): 96.9
- Apoptotic (Ba/F3-kit-T6701 [1]; 1.0 μM): 8.4
- Necrotic (Ba/F3-kit-T6701 [1]; 1.0 μM): 0
- Viable (Ba/F3-kit-T6701 [1]; 1.0 μM): 91.6
- Apoptotic (Ba/F3-PDGFRα-T674M; 0.01 μM): 9
- Necrotic (Ba/F3-PDGFRα-T674M; 0.01 μM): 0
- Viable (Ba/F3-PDGFRα-T674M; 0.01 μM): 91
- Apoptotic (Ba/F3-PDGFRα-T674M; 0.1 μM): 65.2
- Necrotic (Ba/F3-PDGFRα-T674M; 0.1 μM): 0
- Viable (Ba/F3-PDGFRα-T674M; 0.1 μM): 34.7
- Apoptotic (Ba/F3-PDGFRα-T674M; 1.0 μM): 86.80
- Necrotic (Ba/F3-PDGFRα-T674M; 1.0 μM): 0.1
- Viable (Ba/F3-PDGFRα-T674M; 1.0 μM): 13.2
- Apoptotic (Ba/F3-PDGFRα-T674I; 0.01 μM): 38.1
- Necrotic (Ba/F3-PDGFRα-T674I; 0.01 μM): 0.1
- Viable (Ba/F3-PDGFRα-T674I; 0.01 μM): 61.9
- Apoptotic (Ba/F3-PDGFRα-T674I; 0.1 μM): 84.7
- Necrotic (Ba/F3-PDGFRα-T674I; 0.1 μM): 0.2
- Viable (Ba/F3-PDGFRα-T674I; 0.1 μM): 15.2
- Apoptotic (Ba/F3-PDGFRα-T674I; 1.0 μM): 94.1
- Necrotic (Ba/F3-PDGFRα-T674I; 1.0 μM): 0
- Viable (Ba/F3-PDGFRα-T674I; 1.0 μM): 5.8
- % G0G1 (Ba/F3-kit-T6701 [2]; 0.01 μM): 35.2%
- % G2M (Ba/F3-kit-T6701 [2]; 0.01 μM): 14.62%
- % S (Ba/F3-kit-T6701 [2]; 0.01 μM): 50.19%
- % G0G1 (Ba/F3-kit-T6701 [2]; 0.1 μM): 29.01%
- % G2M (Ba/F3-kit-T6701 [2]; 0.1 μM): 16.54%
- % S (Ba/F3-kit-T6701 [2]; 0.1 μM): 54.45%
- % G0G1 (Ba/F3-kit-T6701 [2]; 1.0 μM): 52.57%
